One compound from patent US8153410B2, “Alternate morpheein forms of allosteric proteins as a target for the development of bioactive molecules” (Fox Chase Cancer Center, priority 2003, dated 2012) can be followed below.

Molecules are shown by their SMILES. pIC50: −log10 of the molar value. Where two headings read alike, the source gives them in different places.

One experiment deals with P. aeruginosa PBGS (Pseudomonas aeruginosa, UniProt Q59643). The experiment in a line: native PAGE gel shift of P. aeruginosa PBGS. The format is biochemical. The note with it: P. aeruginosa PBGS ~1 mg/ml. As for the experimental part: (§1) FIG. 33 illustrates the species-specific effects of morphlock-1 on PBGS—FIG. 33(a) Dose-response curves showing morphlock-1 inhibition of pea PBGS at 1 μg/ml (∘) and human PBGS at 0.6 μg/ml (Δ) and 10 μg/ml (□). The proteins were incubated in the presence of 10× inhibitor for 30 minutes at 37° C. prior to assay. The concentrations on the X-axis represent the final concentration of morphlock-1 in the assay. FIG. 33(b). The IC50 for morphlock-1 is a function of pea PBGS concentration. IC50 values were determined as per part (a) using the noted concentrations of pea PBGS. (c) Native PAGE evaluation of the effect of morphlock-1 on the quaternary structure equilibria of PBGS (˜1 mg/ml) from D. melanogaster, P. aeruginosa, V. cholerae, and H. sapiens. Note that the charge/mass ratio is not the same for PBGS from different species.
(§2) The putative morphlock-1 binding site is phylogenetically variable (see below). As such, morphlock-1 would not be expected to inhibit human PBGS. The effect of morphlock-1 on the activity of human PBGS was also determined at the midpoint of the protein concentration-dependent specific activity. […] To further establish the species-selectivity of morphlock-1, the gel shift assay was also carried out for PBGS from P. aeruginosa, and V. cholerae.
For orientation: In EMSA bound probe runs differently from free probe, usually more slowly.

The target in a further experiment is T1, human PBGS (Homo sapiens, UniProt P13716).
T1 sequence (P13716 1-330): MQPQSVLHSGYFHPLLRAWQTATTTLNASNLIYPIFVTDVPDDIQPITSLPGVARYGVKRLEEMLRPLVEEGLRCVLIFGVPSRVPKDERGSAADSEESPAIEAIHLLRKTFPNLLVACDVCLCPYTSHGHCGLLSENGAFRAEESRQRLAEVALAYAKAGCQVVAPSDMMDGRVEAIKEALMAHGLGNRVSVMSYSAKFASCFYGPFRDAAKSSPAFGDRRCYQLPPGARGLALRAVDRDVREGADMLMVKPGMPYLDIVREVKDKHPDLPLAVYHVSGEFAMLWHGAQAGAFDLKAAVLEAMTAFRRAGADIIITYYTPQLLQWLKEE
The experiment in a line: native PAGE gel shift of human PBGS. It counts as biochemical, H. sapiens. As to the method:
as §1, §2

The next experiment addresses T2, pea PBGS (Pisum sativum, UniProt P30124).
T2 sequence (P30124 69-398 limits assumed): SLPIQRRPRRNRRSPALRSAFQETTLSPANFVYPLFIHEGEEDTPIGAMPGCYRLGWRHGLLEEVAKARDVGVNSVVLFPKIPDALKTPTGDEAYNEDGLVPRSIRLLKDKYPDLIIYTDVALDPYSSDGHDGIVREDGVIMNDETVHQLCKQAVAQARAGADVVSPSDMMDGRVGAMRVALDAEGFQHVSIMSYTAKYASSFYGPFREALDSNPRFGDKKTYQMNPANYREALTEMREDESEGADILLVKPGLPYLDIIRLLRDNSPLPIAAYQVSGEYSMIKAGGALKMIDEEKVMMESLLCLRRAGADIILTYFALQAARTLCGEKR
The experiment in a line: pea PBGS activity assay (inhibition, protein concentration dependent specific activity). The format is biochemical. Also noted: made in house. As for the experimental part:
FIG. 32(a) The inhibitor morphlock-1 is illustrated as posed by Glide. The subunits A, B, and E are illustrated as ribbon diagram. Morphlock-1 is shown with carbon atoms and illustrated as ball and stick. FIG. 32(b) The chemical structure of morphlock-1. […] Pea PBGS was incubated with various concentrations of morphlock-1 (in a DMSO solution). Each concentration of morphlock-1 with a fixed amount of DMSO was incubated with protein for 30 minutes at 37° C. prior to resolution on 12.5% polyacrylamide native PhastGels. […] (d) The protein concentration dependence of pea PBGS specific activity is illustrated. […] The final concentration of morphlock-1 in the inhibited assay was 5 μM, and the concentration of PBGS in the inhibited and control assays ranged from 0.05-50 μg/mL (0.014-1.4 μM).
The proteins were incubated in the presence of 10× inhibitor for 30 minutes at 37° C. prior to assay. The concentrations on the X-axis represent the final concentration of morphlock-1 in the assay. FIG. 33(b). […] IC50 values were determined as per part (a) using the noted concentrations of pea PBGS. (c) Native PAGE evaluation of the effect of morphlock-1 on the quaternary structure equilibria of PBGS (˜1 mg/ml) from D. melanogaster, P. aeruginosa, V. cholerae, and H. sapiens. Note that the charge/mass ratio is not the same for PBGS from different species.
The dose response curve for morphlock-1 inhibition of pea PBGS (FIG. 37a) was initially carried out at 0.03 μM pea PBGS, where the hexamer is a significant component of the equilibrium mixture; the morphlock-1 concentration was varied from 0.1 μM to 0.1 mM.
The dose response curve for morphlock-1 inhibition of pea PBGS (FIG. 33(a)) was initially carried out at 0.03 μM pea PBGS, where the hexamer is a significant component of the equilibrium, in order to optimize the observed inhibition; the morphlock-1 concentration was varied from 0.1 μM to 0.1 mM.

Sequence of P. aeruginosa PBGS (Q59643 whole entry): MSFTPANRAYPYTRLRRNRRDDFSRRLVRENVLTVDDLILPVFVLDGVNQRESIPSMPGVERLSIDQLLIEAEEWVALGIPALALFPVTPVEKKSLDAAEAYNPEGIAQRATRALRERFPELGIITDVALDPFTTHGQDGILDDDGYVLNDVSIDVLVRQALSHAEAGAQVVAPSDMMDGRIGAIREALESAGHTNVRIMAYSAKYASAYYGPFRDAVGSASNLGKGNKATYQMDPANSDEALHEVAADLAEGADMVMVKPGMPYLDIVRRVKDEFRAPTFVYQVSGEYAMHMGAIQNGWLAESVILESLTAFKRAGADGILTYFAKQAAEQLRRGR

Take `O=C1Nc2ccc(S(=O)(=O)NCC(O)c3ccc([N+](=O)[O-])cc3)c3cccc1c23` (centres unmarked) [morphlock-1, 2-oxo-1,2-dihydro-benzo(cd)indole-6-sulfonic acid[2-hydroxy-2-(4-nitro-phenyl)-ethyl]-amide]: the “perturbation of the quaternary structure equilibrium, gel shift assay” value at P. aeruginosa PBGS was “did not cause any perturbation of the quaternary structure equilibrium”. For the same compound, at human PBGS, the “effect on mobility of human PBGS on native PAGE gel” value is listed as “nor does it effect the mobility of human PBGS”. In addition, the pIC50 at pea PBGS (0.03 μM pea PBGS, morphlock-1 0.1 μM to 0.1 mM, 30 minutes at 37° C. prior to assay, read-out: apparent IC50 of morphlock-1 inhibition of pea PBGS) was 5.92; on pea PBGS (low protein concentration, activity assays, read-out: IC50 by kinetic analysis / activity assays (and native PAGE with more sensitive staining)), around 6.00. Moreover, the “K(0.5) of the protein concentration dependent specific activity in the presence of morphlock-1” value at pea PBGS (morphlock-1 set at 5 μM, K(0.5) without morphlock-1 0.064 μM) was 0.134 µM.
